This passage reports MIC, solubility and logP results from ChEMBL document CHEMBL3797048, “Structure-activity relationship studies of new rifamycins containing l-amino acid esters as inhibitors of bacterial RNA polymerases” (Eur J Med Chem, 2016).

SMILES strings stand for the structures. Converted amounts (≈) assume the structure as drawn.

Data set [1] deals with Staphylococcus aureus. Kind of data set: Antibacterial activity against Staphylococcus aureus ATCC 4163 after 18 hrs by microdilution method. The format is functional. The conditions noted are these: ATCC 4163, 18 h.
For data set [2], the system named is Staphylococcus aureus. Kind of data set: Antibacterial activity against Staphylococcus aureus ATCC 25923 after 18 hrs by microdilution method. Type of data set: functional. The note with it: ATCC 25923, 18 h.
In data set [3] the test system is Staphylococcus aureus. Put plainly: Antibacterial activity against Staphylococcus aureus ATCC 6538 after 18 hrs by microdilution method. The format is functional. The note with it: ATCC 6538, 18 h.
Data set [4] concerns Staphylococcus epidermidis. Kind of data set: Antibacterial activity against Staphylococcus epidermidis ATCC 12228 after 18 hrs by microdilution method. The format is functional. The note with it: ATCC 12228, 18 h.
Data set [5] concerns Staphylococcus epidermidis. Put plainly: Antibacterial activity against Staphylococcus epidermidis ATCC 49134 after 18 hrs by microdilution method. The format is functional. The note with it: ATCC 49134, 18 h.
Data set [6] deals with Staphylococcus aureus. Put plainly: Antibacterial activity against methicillin resistant Staphylococcus aureus isolate 1 after 18 hrs by microdilution method. The format is functional. The conditions noted are these: isolate 1, 18 h.
In data set [7] the test system is Staphylococcus aureus. Put plainly: Antibacterial activity against methicillin resistant Staphylococcus aureus isolate 4 after 18 hrs by microdilution method. The format is functional. The note with it: isolate 4, 18 h.
Data set [8] concerns Staphylococcus aureus. Put plainly: Antibacterial activity against methicillin resistant Staphylococcus aureus isolate 5 after 18 hrs by microdilution method. Type of data set: functional. The note with it: isolate 5, 18 h.
A further data set has as its system Escherichia coli. Put plainly: Antibacterial activity against Escherichia coli ATCC 25922 after 18 hrs by microdilution method. Type of data set: functional. The note with it: ATCC 25922, 18 h.
For a further data set, the system named is Pseudomonas aeruginosa. Put plainly: Antibacterial activity against Pseudomonas aeruginosa NCTC 6749 after 18 hrs by microdilution method. Type of data set: functional. The conditions noted are these: NCTC 6749, 18 h.
A short description of data set [9]: Solubility in water at pH 7 by UV-vis spectrophotometric analysis. Type of data set: physicochemical.
A short description of data set [10]: Octanol-water partition coefficient, logP of the compound after 1 hr by UV-vis spectrophotometric analysis. Type of data set: physicochemical.
In data set [11] the test system is Staphylococcus aureus. Kind of data set: Antibacterial activity against methicillin resistant Staphylococcus aureus isolate 2 after 18 hrs by microdilution method. The conditions noted are these: isolate 2, 18 h. Type of data set: functional.
The test system of data set [12] is Staphylococcus aureus. Kind of data set: Antibacterial activity against methicillin resistant Staphylococcus aureus isolate 3 after 18 hrs by microdilution method. The format is functional. The note with it: isolate 3, 18 h.

With `COC(=O)[C@H](Cc1c[nH]c2ccccc12)NCc1c2c(O)c3c(O)c(C)c4c(c3c1O)C(=O)[C@@](C)(O/C=C/[C@H](OC)[C@@H](C)[C@@H](OC(C)=O)[C@H](C)[C@H](O)[C@H](C)[C@@H](O)[C@@H](C)/C=C/C=C(/C)C(=O)N2)O4`, the minimum inhibitory concentration (MIC) turned out to be 0.031 µg/mL (≈ 0.0334 µM) against Staphylococcus aureus [1]; 0.063 µg/mL (≈ 0.0679 µM) with Staphylococcus aureus [2]; 0.031 µg/mL (≈ 0.0334 µM) against Staphylococcus aureus [3]; 0.016 µg/mL (≈ 0.0172 µM) in data set [4]; 0.016 µg/mL (≈ 0.0172 µM) in data set [5]; 0.031 µg/mL (≈ 0.0334 µM) against Staphylococcus aureus [6]. Also, the MIC with Staphylococcus aureus [7] was 0.063 µg/mL (≈ 0.0679 µM); with Staphylococcus aureus [8], 0.063 µg/mL (≈ 0.0679 µM); in the data set on Escherichia coli it was > 2 µg/mL; in the data set on Pseudomonas aeruginosa it was > 2 µg/mL. In [9], this compound displayed a solubility of 60 µg/mL (≈ 64.7 µM). In addition, the logP at 1 h in [10] worked out at 2.22.
With `CCOC(=O)[C@H](CCCCN)NCc1c2c(O)c3c(O)c(C)c4c(c3c1O)C(=O)[C@@](C)(O/C=C/[C@H](OC)[C@@H](C)[C@@H](OC(C)=O)[C@H](C)[C@H](O)[C@H](C)[C@@H](O)[C@@H](C)/C=C/C=C(/C)C(=O)N2)O4`, the minimal inhibitory concentration (MIC) against Staphylococcus aureus [1] is 2 µg/mL (≈ 2.26 µM); in the data set with Staphylococcus aureus [2] it was > 2 µg/mL; against Staphylococcus aureus [3] it was 2 µg/mL (≈ 2.26 µM); in data set [4], 0.5 µg/mL (≈ 0.566 µM); in data set [5], 1 µg/mL (≈ 1.13 µM); in the data set on Staphylococcus aureus [6] it was > 2 µg/mL. Besides, the MIC with Staphylococcus aureus [11] and in the data set with Staphylococcus aureus [12] was > 2 µg/mL each time. The solubility in data set [9] amounted to 120 µg/mL (≈ 136 µM). The compound also registered a logP at 1 h in [10] of 2.2.
On to `COC(=O)[C@H](Cc1cnc[nH]1)NCc1c2c(O)c3c(O)c(C)c4c(c3c1O)C(=O)[C@@](C)(O/C=C/[C@H](OC)[C@@H](C)[C@@H](OC(C)=O)[C@H](C)[C@H](O)[C@H](C)[C@@H](O)[C@@H](C)/C=C/C=C(/C)C(=O)N2)O4`, for which the MIC against Staphylococcus aureus [1] came to 0.25 µg/mL (≈ 0.284 µM); against Staphylococcus aureus [2], 1 µg/mL (≈ 1.14 µM); against Staphylococcus aureus [3], 0.25 µg/mL (≈ 0.284 µM); in [4], 0.25 µg/mL (≈ 0.284 µM); in data set [5], 0.125 µg/mL (≈ 0.142 µM); with Staphylococcus aureus [6] it was 0.5 µg/mL (≈ 0.569 µM). Also, the MIC in the data set on Staphylococcus aureus [11] and in the data set with Staphylococcus aureus [12] was 1 µg/mL (≈ 1.14 µM) in each case. The concentration in solution in data set [9] (solubility) was 150 µg/mL (≈ 171 µM). Besides, the log partition coefficient (logP) at 1 h in data set [10] is 1.72.
Regarding `CCOC(=O)[C@H](Cc1ccc(O)cc1)NCc1c2c(O)c3c(O)c(C)c4c(c3c1O)C(=O)[C@@](C)(O/C=C/[C@H](OC)[C@@H](C)[C@@H](OC(C)=O)[C@H](C)[C@H](O)[C@H](C)[C@@H](O)[C@@H](C)/C=C/C=C(/C)C(=O)N2)O4`, the MIC stood at 0.5 µg/mL (≈ 0.544 µM) against Staphylococcus aureus [1]; 2 µg/mL (≈ 2.18 µM) against Staphylococcus aureus [2]; 0.5 µg/mL (≈ 0.544 µM) in the data set on Staphylococcus aureus [3]; 0.063 µg/mL (≈ 0.0686 µM) in [4]; 0.125 µg/mL (≈ 0.136 µM) in [5]; 0.5 µg/mL (≈ 0.544 µM) against Staphylococcus aureus [6]. Besides, the MIC is 0.5 µg/mL (≈ 0.544 µM) against Staphylococcus aureus [7], 0.5 µg/mL (≈ 0.544 µM) against Staphylococcus aureus [8], > 2 µg/mL with Escherichia coli and > 2 µg/mL against Pseudomonas aeruginosa. Also, the concentration in solution in [9] (solubility) was 50 µg/mL (≈ 54.4 µM). In data set [10], this compound had a logP at 1 h of 1.92.
As to `CO[C@H]1/C=C/O[C@@]2(C)Oc3c(C)c(O)c4c(O)c(c(CN[C@@H](Cc5c[nH]c6ccccc56)C(=O)OCc5ccccc5)c(O)c4c3C2=O)NC(=O)/C(C)=C\C=C\[C@H](C)[C@H](O)[C@@H](C)[C@@H](O)[C@@H](C)[C@H](OC(C)=O)[C@@H]1C`, the MIC against Staphylococcus aureus [1] amounted to 1 µg/mL (≈ 0.996 µM); against Staphylococcus aureus [2], 2 µg/mL (≈ 1.99 µM); with Staphylococcus aureus [3] it was 1 µg/mL (≈ 0.996 µM); in data set [4], 0.25 µg/mL (≈ 0.249 µM); in data set [5] it was 0.25 µg/mL (≈ 0.249 µM); against Staphylococcus aureus [6], 1 µg/mL (≈ 0.996 µM). For the same compound, the MIC in the data set with Staphylococcus aureus [7] was 1 µg/mL (≈ 0.996 µM); against Staphylococcus aureus [8], 1 µg/mL (≈ 0.996 µM); with Escherichia coli, > 2 µg/mL; with Pseudomonas aeruginosa it was > 2 µg/mL. The solubility in [9] is < 10 µg/mL. In addition, the logP at 1 h in [10] amounted to 2.72.
As for `COC(=O)[C@H](Cc1ccccc1)NCc1c2c(O)c3c(O)c(C)c4c(c3c1O)C(=O)[C@@](C)(O/C=C/[C@H](OC)[C@@H](C)[C@@H](OC(C)=O)[C@H](C)[C@H](O)[C@H](C)[C@@H](O)[C@@H](C)/C=C/C=C(/C)C(=O)N2)O4`, the MIC in the data set with Staphylococcus aureus [1] came out at 0.063 µg/mL (≈ 0.0709 µM); with Staphylococcus aureus [2], 0.125 µg/mL (≈ 0.141 µM); with Staphylococcus aureus [3] it was 0.063 µg/mL (≈ 0.0709 µM); in data set [4], 0.031 µg/mL (≈ 0.0349 µM); in [5] it was 0.031 µg/mL (≈ 0.0349 µM); with Staphylococcus aureus [6], 0.125 µg/mL (≈ 0.141 µM). Also, the minimum inhibitory concentration (MIC) in the data set with Staphylococcus aureus [7] is 0.063 µg/mL (≈ 0.0709 µM); in the data set with Staphylococcus aureus [8], 0.063 µg/mL (≈ 0.0709 µM); against Escherichia coli it was > 2 µg/mL; against Pseudomonas aeruginosa, > 2 µg/mL. The compound also registered a solubility in data set [9] of 70 µg/mL (≈ 78.7 µM). In data set [10], this compound gave a logP at 1 h of 2.47.
For `CO[C@H]1/C=C/O[C@@]2(C)Oc3c(C)c(O)c4c(O)c(c(CN[C@@H](Cc5ccccc5)C(=O)OC(C)(C)C)c(O)c4c3C2=O)NC(=O)/C(C)=C\C=C\[C@H](C)[C@H](O)[C@@H](C)[C@@H](O)[C@@H](C)[C@H](OC(C)=O)[C@@H]1C`, the MIC against Staphylococcus aureus [1] worked out at 0.5 µg/mL (≈ 0.537 µM); in the data set with Staphylococcus aureus [2], 1 µg/mL (≈ 1.07 µM); in the data set with Staphylococcus aureus [3] it was 0.5 µg/mL (≈ 0.537 µM); in data set [4], 0.125 µg/mL (≈ 0.134 µM); in [5], 0.25 µg/mL (≈ 0.269 µM); with Staphylococcus aureus [6], 0.5 µg/mL (≈ 0.537 µM). The minimum inhibitory concentration (MIC) with Staphylococcus aureus [7] was 0.5 µg/mL (≈ 0.537 µM); with Staphylococcus aureus [8], 0.5 µg/mL (≈ 0.537 µM); against Escherichia coli, > 2 µg/mL; against Pseudomonas aeruginosa, > 2 µg/mL. This compound also displayed a solubility in data set [9] of 30 µg/mL (≈ 32.2 µM). For the same compound, the log partition coefficient (logP) at 1 h in [10] came to 2.66.
